Measured values published in patent publication US9115122B2, “Non-ATP dependent inhibitors of extracellular signal-regulated kinase (ERK)” (UNIVERSITY OF MARYLAND, BALTIMORE, priority 2012, dated 2015).

Tests used:
Assay in all cases: Cell proliferation WST-1 assay, single dose (Example 4)
Type in all cases: cell-based
Conditions in all cases: 100 μM, 48 hours
[1] = test system: A375 melanoma cells
Protocol: (§1) In addition, compounds were tested in RPMI-7951 cells, which also contain mutated BRaf and are resistant to BRaf inhibitors due to the overexpression of MAP3K8 (the gene encoding COT/Tp12) that provides an alternative mechanism to indirectly or directly activate ERK proteins. […] For comparison, HeLa cervical carcinoma and Jurkat T-cell leukemia cells, which are p53 defective cancer cell lines but contain no known activating mutations in the ERK pathway, were studied. […] Cell proliferation was evaluated by water soluble tetrazolium-1 (WST-1) assay as previously described. Briefly, cells (˜5000/well) were seeded in 96 well plates, allowed to recover for 16-20 hours, and then treated with the indicated test compound for 48 hours. After incubation, WST-1 reagent was added and absorbance was read at 450 nm with background subtraction taken at 650 nm. Values were normalized to the control (DMSO only treated) cells.

[2] = test system: HeLa cervical carcinoma cells
Protocol: as §1

[3] = test system: RPMI-7951 melanoma cells
Protocol: as §1

[4] = test system: HL-60 leukemic cells
Protocol: as §1

[5] = test system: Jurkat T-cell leukemia cells
Protocol: as §1

[6] = test system: SK-MEL-28 melanoma cells
Protocol: as §1

CCOc1ccc(/C=C2\SC(=O)N(CCCl)C2=O)cc1 [Compound 28f, (Z)-3-(2-chloroethyl)-5-(4-ethoxybenzylidene)thiazolidine-2,4-dione]
Cell Viability (% of Vehicle) A375 [1]: 113 ± 9 % of Vehicle | Cell Viability (% of Vehicle) HeLa [2]: 87 ± 4 % of Vehicle | Cell Viability (% of Vehicle) RPMI-7951 [3]: 128 ± 3 % of Vehicle | Cell Viability (% of Vehicle) HL-60 [4]: 99 ± 14 % of Vehicle | Cell Viability (% of Vehicle) Jurkat [5]: 99 ± 5 % of Vehicle | Cell Viability (% of Vehicle) SK-MEL-28 [6]: 97 ± 3 % of Vehicle

CCOc1ccc(/C=C2\SC(=O)N(Cc3cccc(C(=O)O)c3)C2=O)cc1 [Compound 28r, (Z)-3-((5-(4-ethoxybenzylidene)-2,4-dioxothiazolidin-3-yl)methyl)benzoic acid]
Cell Viability (% of Vehicle) A375 [1]: 59 ± 1 % of Vehicle | Cell Viability (% of Vehicle) HeLa [2]: 75 ± 4 % of Vehicle | Cell Viability (% of Vehicle) RPMI-7951 [3]: 83 ± 6 % of Vehicle | Cell Viability (% of Vehicle) HL-60 [4]: 41 ± 22 % of Vehicle | Cell Viability (% of Vehicle) Jurkat [5]: 80 ± 3 % of Vehicle | Cell Viability (% of Vehicle) SK-MEL-28 [6]: 83 ± 7 % of Vehicle

CCOc1ccc(/C=C2\SC(=O)N(CCNS(=O)(=O)c3ccc(C#N)cc3)C2=O)cc1 [Compound 27b, (Z)-4-cyano-N-(2-(5-(4-ethoxybenzylidene)-2,4-dioxothiazolidin-3-yl)ethyl)benzenesulfonamide]
Cell Viability (% of Vehicle) A375 [1]: 109 ± 6 % of Vehicle | Cell Viability (% of Vehicle) HeLa [2]: 90 ± 4 % of Vehicle | Cell Viability (% of Vehicle) RPMI-7951 [3]: 99 ± 4 % of Vehicle | Cell Viability (% of Vehicle) HL-60 [4]: 101 ± 52 % of Vehicle | Cell Viability (% of Vehicle) Jurkat [5]: 103 ± 3 % of Vehicle | Cell Viability (% of Vehicle) SK-MEL-28 [6]: 95 ± 3 % of Vehicle

CCOc1ccc(/C=C2\CCN(CCN)C2=O)cc1 [Compound 17, (E)-1-(2-aminoethyl)-3-(4-ethoxybenzylidene)pyrrolidin-2-one]
Cell Viability (% of Vehicle) A375 [1]: 95 ± 2 % of Vehicle | Cell Viability (% of Vehicle) HeLa [2]: 89 ± 4 % of Vehicle | Cell Viability (% of Vehicle) RPMI-7951 [3]: 96 ± 3 % of Vehicle | Cell Viability (% of Vehicle) HL-60 [4]: 73 ± 9 % of Vehicle | Cell Viability (% of Vehicle) Jurkat [5]: 92 ± 2 % of Vehicle | Cell Viability (% of Vehicle) SK-MEL-28 [6]: 79 ± 6 % of Vehicle

CCOc1ccc(/C=C2\SC(=O)N(Cc3ccc(C(=O)O)cc3)C2=O)cc1 [Compound 28q, (Z)-4-((5-(4-ethoxybenzylidene)-2,4-dioxothiazolidin-3-yl)methyl)benzoic acid]
Cell Viability (% of Vehicle) A375 [1]: 2.0 ± 0.5 % of Vehicle | Cell Viability (% of Vehicle) HeLa [2]: 64 ± 2 % of Vehicle | Cell Viability (% of Vehicle) RPMI-7951 [3]: 34 ± 3 % of Vehicle | Cell Viability (% of Vehicle) HL-60 [4]: 84 ± 37 % of Vehicle | Cell Viability (% of Vehicle) Jurkat [5]: 85 ± 3 % of Vehicle | Cell Viability (% of Vehicle) SK-MEL-28 [6]: 59 ± 13 % of Vehicle

CCOc1ccc(/C=C2\SC(=O)N(C(CN)CN)C2=O)cc1 [Compound 22e, (Z)-3-(1,3-diaminopropan-2-yl)-5-(4-ethoxybenzylidene)thiazolidine-2,4-dione]
Cell Viability (% of Vehicle) A375 [1]: 19 ± 4 % of Vehicle | Cell Viability (% of Vehicle) HeLa [2]: 62 ± 2 % of Vehicle | Cell Viability (% of Vehicle) RPMI-7951 [3]: 25 ± 3 % of Vehicle | Cell Viability (% of Vehicle) HL-60 [4]: 11 ± 4 % of Vehicle | Cell Viability (% of Vehicle) Jurkat [5]: 81 ± 9 % of Vehicle | Cell Viability (% of Vehicle) SK-MEL-28 [6]: 32 ± 2 % of Vehicle

CCOc1ccc(/C=C2\SC(=O)N(CCNC)C2=O)cc1 [Compound 23a, (Z)-5-(4-ethoxybenzylidene)-3-(2-(methylamino)ethyl)thiazolidine-2,4-dione]
Cell Viability (% of Vehicle) A375 [1]: 95 ± 2 % of Vehicle | Cell Viability (% of Vehicle) HeLa [2]: 85 ± 4 % of Vehicle | Cell Viability (% of Vehicle) RPMI-7951 [3]: 54 ± 7 % of Vehicle | Cell Viability (% of Vehicle) HL-60 [4]: 17 ± 11 % of Vehicle | Cell Viability (% of Vehicle) Jurkat [5]: 83 ± 6 % of Vehicle | Cell Viability (% of Vehicle) SK-MEL-28 [6]: 91 ± 1 % of Vehicle
